In general, IC50 refers to the midpoint of a concentration-inhibition curve.

This assay addresses Mitogen-activated protein kinase kinase kinase 14 (Homo sapiens, UniProt Q99558). The assay is described as follows: Inhibition of auto-phosphorylation of recombinant human NF-kappaB-inducing kinase (NIK/MAP3K14) activity (AlphaScreen). Here is the method:
All compounds tested were dissolved in dimethyl sulfoxide (DMSO) and further dilutions were made in assay buffer. The final DMSO concentration was 0.7% (v/v) in assays. […] The assays were carried out in 384 well Proxiplates (Perkin Elmer).
For orientation: Bead proximity is the source of the signal in Alpha formats.

Chain of Mitogen-activated protein kinase kinase kinase 14 (Q99558 whole entry): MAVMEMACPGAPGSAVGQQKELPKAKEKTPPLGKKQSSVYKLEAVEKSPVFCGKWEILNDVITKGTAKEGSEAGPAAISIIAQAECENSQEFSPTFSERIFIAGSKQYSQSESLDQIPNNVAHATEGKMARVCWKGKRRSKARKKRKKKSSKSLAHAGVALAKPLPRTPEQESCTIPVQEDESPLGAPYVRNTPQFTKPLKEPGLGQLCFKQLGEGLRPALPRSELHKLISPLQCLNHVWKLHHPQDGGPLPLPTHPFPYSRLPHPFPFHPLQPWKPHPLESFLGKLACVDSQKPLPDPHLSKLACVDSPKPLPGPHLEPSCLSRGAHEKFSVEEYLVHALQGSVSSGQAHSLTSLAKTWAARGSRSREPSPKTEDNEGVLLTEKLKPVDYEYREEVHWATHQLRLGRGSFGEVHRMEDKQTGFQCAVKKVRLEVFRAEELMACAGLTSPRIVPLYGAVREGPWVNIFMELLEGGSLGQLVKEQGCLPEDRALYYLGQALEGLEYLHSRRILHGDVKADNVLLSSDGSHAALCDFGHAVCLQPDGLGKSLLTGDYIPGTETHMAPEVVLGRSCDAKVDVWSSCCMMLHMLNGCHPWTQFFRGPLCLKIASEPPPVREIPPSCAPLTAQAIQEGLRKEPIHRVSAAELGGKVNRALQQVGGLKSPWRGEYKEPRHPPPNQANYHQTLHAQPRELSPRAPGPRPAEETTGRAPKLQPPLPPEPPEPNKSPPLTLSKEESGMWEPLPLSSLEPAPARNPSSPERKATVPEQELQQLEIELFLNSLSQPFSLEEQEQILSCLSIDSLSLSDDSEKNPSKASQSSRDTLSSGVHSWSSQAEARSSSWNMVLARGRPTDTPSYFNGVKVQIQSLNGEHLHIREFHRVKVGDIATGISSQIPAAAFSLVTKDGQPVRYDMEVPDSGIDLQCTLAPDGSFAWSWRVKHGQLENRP

`Cc1cc(C#C[C@]2(O)CCN(C)C2=O)cc(-c2nc3c(N)ncnc3s2)c1` [US20240199605, Example 153]: the IC50 amounted to 800 pM.

These data come from BindingDB's records for patent US20240199605 (Janssen Pharmaceutica, 2024).
